Earlier results in patent publication US20210121515A1, “COMPOSITION FOR USE IN THE PREVENTION AND/OR TREATMENT OF OSTEOARTICULAR DISEASES” (NEILOS S.R.L., priority 2018, published 2021).

Columns and labels:
[1] = test system: NF-κB, COX-2, superoxide dismutase; conditions: rats
[2] = test system: carrageenan edema and pleurisy; conditions: doses of 1 mg/kg; comparable to 5 mg/kg of indomethacin
mPGES-1 = biological target: T1, mPGES-1 (Homo sapiens, UniProt O14684); conditions: intact A549 cell assays
T1 construct: with an IC50 of 10 μM in intact A549 cell assays; endogenous in cells; host or cells: A549
T1 sequence (O14684 1-152): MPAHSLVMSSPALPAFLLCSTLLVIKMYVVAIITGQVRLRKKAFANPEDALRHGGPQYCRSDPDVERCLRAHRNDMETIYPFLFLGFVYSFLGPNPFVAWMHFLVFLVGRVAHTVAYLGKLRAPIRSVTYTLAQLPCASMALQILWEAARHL

Structure (SMILES): O=C(O)[C@H]1O[C@@H](Oc2cc3oc(-c4ccccc4)cc(=O)c3c(O)c2O)[C@H](O)[C@@H](O)[C@@H]1O [baicalin]
- levels of COX-2 [1]: reduce
- levels of NF-κB [1]: reduce
- levels of superoxide dismutase [1]: increasing

Structure (SMILES): C[C@H]1[C@H](C)CC[C@]2(C)CC[C@]3(C)C(=CC[C@@H]4[C@@]5(C)CC[C@@H](O)[C@](C)(C(=O)O)[C@@H]5CC[C@]43C)[C@H]12 [β-boswellic acid]
- activity in acute inflammation models [2]: good activity
- IC50 (mPGES-1): 10 µM
